Experimental data as given in US5447931A, “New therapeutic use of heterocyclylpiperazines as 5-HT3 agonists and new compounds” (Sanofi, priority 1992, dated 1995).

Test system: 5-HT3 receptors
Test: Bezold-Jarisch effect (reduction of heart rate) in the anesthetized rat, intravenous administration
Type: in vivo, Sprague-Dawley rats
Details: antagonist against the heart rate reduction by compounds of formula (I)

Compound | inhibition by antagonist of the Bezold-Jarisch effect evoked by compounds of formula (I)
CN1[C@@H]2CC[C@H]1C[C@@H](OC(=O)c1c[nH]c3ccccc13)C2 [ICS 205-930] | inhibited
COc1cc(N)c(Cl)cc1C(=O)NC1CN2CCC1CC2 (centres unmarked) [zacopride] | inhibited
